These results are taken from patent US7932376B2, “Pyrimidine-based non-nucleotide composition and method for inhibiting platelet aggregation” (Inspire Pharmaceuticals, Inc., priority 2005, dated 2011).

Read-outs that look alike come from different tables or passages of the source.

This test has as its system ADP-induced aggregation of washed platelets. The experiment in a line: Inhibition of ADP-induced aggregation of washed platelets. As to conditions: human washed platelets, light transmission aggregometry, 2 min pre-incubation with inhibitor before ADP, read-out: IC50 as inhibitors of ADP-induced aggregation of washed platelets. It is filed as cell-based. The procedure:
Isolation of platelets: Human blood is obtained from informed healthy adult volunteers. Blood is collected into one-sixth volume of acid/citrate/dextrose (ACD) buffer (85 mM sodium citrate, 65 mM citric acid, and 110 mM glucose). Collected blood is placed in a water bath at 37° C. for 30 minutes. Blood is then centrifuged at 275×g for 16 minutes at room temperature and the platelet-rich plasma is removed and centrifuged at 2200×g for 13 minutes at room temperature. […]
Aggregation Studies: ADP-induced platelet aggregation is determined by measuring the transmission of light through a 0.5 ml suspension of stirred (1000 rpm) washed platelets in a lumi-aggregometer at 37° C. […] Platelet aggregation is initiated by the addition of indicated concentrations of ADP or other agonists, and the light transmission is continuously recorded for at least 8 min. When inhibitors of platelet aggregation are tested, platelets are incubated for 2 min in the presence of indicated concentrations of inhibitor before addition of ADP or other agonists, and the response is recorded for at least 8 min. The potency of agonists and inhibitors of platelet aggregation is calculated from both the rate of aggregation and the maximal extent of aggregation obtained for each determination by fitting the data to a four-parameter logistic equation using the GraphPad software package (GraphPad Corp. San Diego, Calif.). […]

With `CCNC(=O)Nc1ccn([C@@H]2O[C@H](COCc3ccccc3C(=O)O)C3O[C@H](/C=C/c4ccccc4)O[C@@H]32)c(=O)n1` (stereo partly drawn) [Compound 1, 2′,3′-trans-cinnamylacetal-5′-(2-carboxy)benzyloxy-6-N-ethylurea cytidine], the half-maximal inhibitory concentration (IC50) (Platelet) came to 23.5 µM.

Consider `CCNC(=O)Nc1ccn(C2OC(COCc3c(F)cccc3C(=O)O)C3OC(/C=C/c4ccccc4)OC32)c(=O)n1` (stereo not drawn) [Compound 2, 2′,3′-trans-cinnamylacetal-5′-(2-carboxy-6-fluoro)benzyloxy-6-N-ethylurea cytidine], for which the IC50 turned out to be 1.3 µM.

The IC50 is the concentration that gives 50% inhibition.
